Converted amounts (≈) assume the structure as drawn.
Assays:
[1] = tested on: Staphylococcus aureus NRS384; assay: MBC, spot plating after 24 h in MH broth; details: C = Staphylococcus aureus NRS384
Protocol: (§5) To determine MBC compound concentrations breakpoints were estimated from MIC curves. Overnight cultures were set up as described above for all bacterial strains. The following day overnight cultures were adjusted to give a cell density of 5×10^5 cells per mL. Briefly, cultures were adjusted to the McFarland standard (0.08-0.12) and diluted (1:150). Adjusted cultures were inoculated into 96 well plates with 50 μL sterile Muller-Hinton broth (MHB) and 2 concentrations of each compound. […] MBC cultures were quantified by serial dilution in a 96 well plate and spot plating onto Muller-Hinton agar (MHA). MHA plates were incubated at 37° C. for 24 h and counted. Results are presented as CFU per mL.
(§6) To determine MBC compound concentrations, breakpoints were estimated from MIC curves. Overnight cultures were set up as described above for all bacterial strains. The following day overnight cultures were adjusted to give a cell density of 5×10^5 cells per mL. Briefly, cultures were adjusted to the McFarland standard (0.08-0.12) and diluted (1:150). Adjusted cultures were inoculated into 96 well plates with 50 μL sterile Muller-Hinton broth (MHB) and 2 concentrations of each compound. […] MBC cultures were quantified by serial dilution in a 96 well plate and spot plating onto Muller-Hinton agar (MHA). MHA plates were incubated at 37° C. for 24 hours and counted. […]

[2] = tested on: Pseudomonas aeruginosa 27853; assay: MBC, spot plating after 24 h in MH broth; details: G = Pseudomonas aeruginosa 27853
Protocol: as §5, §6

[3] = tested on: Escherichia coli EC25922; assay: MBC, spot plating after 24 h in MH broth; details: H = Escherichia coli EC25922
Protocol: as §5
(§7) To determine MBC compound concentrations, breakpoints were estimated from MIC curves. Overnight cultures were set up as described above for all bacterial strains. The following day overnight cultures were adjusted to give a cell density of 5×10^5 cells per mL. Briefly, cultures were adjusted to the McFarland standard (0.08-0.12) and diluted (1:150). Adjusted cultures were inoculated into 96 well plates with 50 μL sterile Muller-Hinton broth (MHB) and 2 concentrations of each compound. […] MBC cultures were quantified by serial dilution in a 96 well plate and spot plating onto Muller-Hinton agar (MHA). MHA plates were incubated at 37° C. for 24 hours and counted.
(§8) These compounds were tested for their MBC against a panel of ATCC and nosocomial bacteria.

[4] = tested on: Staphylococcus aureus MR1; assay: MBC, spot plating after 24 h in MH broth; details: B = Staphylococcus aureus MR1
Protocol: as §5, §7, §8

[5] = tested on: Klebsiella pneumoniae KL1; assay: MBC, spot plating after 24 h in MH broth; details: F = Klebisella pneumoniae KL1
Protocol: as §5, §6

[6] = tested on: Enterococcus faecalis EF51299; assay: MBC, spot plating after 24 h in MH broth; details: D = Enterococcus faecalis EF51299
Protocol: as §5, §6

[7] = tested on: Enterococcus faecalis EF19433; assay: MBC, spot plating after 24 h in MH broth; details: E = Enterococcus faecalis EF19433
Protocol: as §5, §7, §8

[8] = tested on: Staphylococcus aureus ATCC 29213; assay: MBC, spot plating after 24 h in MH broth; details: A = Staphylococcus aureus 29213
Protocol: as §5, §7, §8

[9] = tested on: Enterococcus faecalis EF19433; assay: MIC, broth microdilution in MH broth with resazurin; format: cell-based; details: Enterococcus faecalis, EF19433, read-out: MIC Concentration
[10] = tested on: Klebsiella pneumoniae KL1; assay: as above; format: cell-based; details: Klebsiella pneumoniae, KL1, read-out: MIC Concentration
[11] = tested on: Pseudomonas aeruginosa 27853; assay: as above; format: cell-based; details: Pseudomonas aeruginosa, 27853, read-out: MIC Concentration
[12] = tested on: Staphylococcus aureus NRS384; assay: Murine wound infection model, in vivo antimicrobial efficacy (bacterial CFU/wound); details: Study 2 pilot; daily application; 24 hrs and 72 hrs post-seeding
[13] = tested on: Escherichia coli EC25922; assay: MIC, broth microdilution in MH broth with resazurin; format: cell-based; details: Escherichia coli, EC25922, read-out: MIC Concentration
[14] = tested on: S. aureus NRS 384; assay: Mouse Staphylococcus aureus-induced wound infection model, bacteria load in wound site; details: for Ig(CFU/wound site) 12 h p.i. / ΔIg(CFU/wound site) vs 12 h infection control / Ig(CFU/wound site) 24 h p.i. / ΔIg(CFU/wound site) vs 24 h infection control / Ig (CFU/wound site) / ΔIg(CFU/wound site) vs infection control: twice a day
[15] = tested on: Staphylococcus aureus NRS384; assay: MIC, broth microdilution in MH broth with resazurin; format: cell-based; details: Staphylococcus aureus, NRS384, read-out: MIC Concentration
[16] = tested on: Staphylococcus aureus MR1; assay: as above; format: cell-based; details: Staphylococcus aureus, MR1, read-out: MIC Concentration
[17] = tested on: Staphylococcus aureus ATCC 29213; assay: as above; format: cell-based; details: Staphylococcus aureus, ATCC29213, read-out: MIC Concentration
[18] = tested on: Acinetobacter baumannii; assay: MIC, CLSI broth microdilution in CAMHB; format: cell-based; details: NCTC13304, A. baumannii (NCTC 13304)
Protocol: (§1) The bacterial strains tested included CLSI and NCTC reference and quality control (QC) strains from the following organism groups: Acinetobacter baumannii, Enterococcus faecalis, Escherichia coli, Klebsiella pneumoniae, Pseudomonas aeruginosa, and Staphylococcus aureus. Some strains contained molecularly characterized β-lactamase genes including carbapenemase (KPC-2) and extended-spectrum β-lactamase (SHV-18) genes.
(§2) Isolates were tested for antimicrobial susceptibility using broth microdilution methodology according to CLSI M07 (2018) and M100 (2023) guidelines. Frozen-form, 96-well MIC panels were produced. The testing medium was cation-adjusted Mueller-Hinton broth (CAMHB). Single MIC values were measured for 8 test compounds against each of the 9 strains tested. Additional MIC values were generated for levofloxacin (comparator agent) against several of the QC strains.
(§3) Compound stock solutions were prepared and allowed to mix overnight as needed. The pH of each stock solution was checked and adjusted as necessary until a minimum pH of 5.0 was achieved (pH range 5.0-7.0). Some compound stock solutions also required the addition of heat to assist in solubilization.
(§4) Current CLSI quality assurance practices were followed when performing the broth microdilution susceptibility testing. MIC values were validated by concurrently testing a control agent (levofloxacin) against CLSI-recommended QC strains including S. aureus ATCC 29213 (methicillin susceptible), E. coli ATCC 25922, Enterococcus faecalis ATCC 29212, and P. aeruginosa ATCC 27853. The initial inoculum density (target, 5×10^5 CFU/mL) during susceptibility testing was monitored by bacterial colony counts.

[19] = tested on: Staphylococcus aureus; assay: MIC, CLSI broth microdilution in CAMHB; format: cell-based; details: ATCC29213, S. aureus (ATCC 29213)
Protocol: as §1, §2, §3, §4

[20] = tested on: Klebsiella pneumoniae; assay: MIC, CLSI broth microdilution in CAMHB; format: cell-based
Protocol: as §1, §2, §3, §4

[21] = tested on: Pseudomonas aeruginosa; assay: MIC, CLSI broth microdilution in CAMHB; format: cell-based; details: ATCC27853, P. aeruginosa (ATCC 27853)
Protocol: as §1, §2, §3, §4

[22] = tested on: Escherichia coli; assay: MIC, CLSI broth microdilution in CAMHB; format: cell-based
Protocol: as §1, §2, §3, §4

[23] = tested on: Enterococcus faecalis; assay: MIC, CLSI broth microdilution in CAMHB; format: cell-based
Protocol: as §1, §2, §3, §4

[24] = 1 mg/ml, 10 μL/wound site, 10 μg/wound site, 12 h p.i.
[25] = 1 mg/ml, 10 μL/wound site, 10 μg/wound site, 24 h p.i.
[26] = Study II, 1 mg/ml, 10 μL/wound site
[27] = Study III, 48 h p.i., 1 mg/ml, 10 μL/wound site
[28] = Study III, 72 h p.i., 1 mg/ml, 10 μL/wound site
[29] = Study V, 0.2 mg/ml, 50 μL/wound site, 24 h p.i.
[30] = Study V, 0.2 mg/ml, 50 μL/wound site, 72 h p.i.

SMILES: CN[C@H](CC(C)C)C(=O)N[C@H]1C(=O)N[C@@H](CC(N)=O)C(=O)N[C@H]2C(=O)N[C@H]3C(=O)N[C@H](C(=O)N[C@H](C(=O)O)c4cc(O)cc(O)c4-c4cc3ccc4O)[C@H](O)c3ccc(c(Cl)c3)Oc3cc2cc(c3O[C@@H]2O[C@H](CO)[C@@H](O)[C@H](O)[C@H]2O[C@H]2C[C@](C)(N)[C@H](O)[C@H](C)O2)Oc2ccc(cc2Cl)[C@H]1O [Van]
- MBC Concentration [1]: 0.02 µM (≈ 0.029 µg/mL)
- MBC Concentration [2]: 2.50 µM (≈ 3.62 µg/mL)
- MBC Concentration [3]: 0.31 µM (≈ 0.449 µg/mL)
- MBC Concentration [4]: 0.02 µM (≈ 0.029 µg/mL)
- MBC Concentration [5]: 1.25 µM (≈ 1.81 µg/mL)
- MBC Concentration [6]: 0.04 µM (≈ 0.058 µg/mL)
- MBC Concentration [7]: 0.08 µM (≈ 0.116 µg/mL)
- MBC Concentration [8]: 0.02 µM (≈ 0.029 µg/mL)

SMILES: CN[C@H](CC(C)C)C(=O)N[C@H]1C(=O)N[C@@H](CC(N)=O)C(=O)N[C@H]2C(=O)N[C@H]3C(=O)N[C@H](C(=O)N[C@H](C(=O)O)c4cc(O)cc(O)c4-c4cc3ccc4O)[C@H](O)c3ccc(c(Cl)c3)Oc3cc2cc(c3O[C@@H]2O[C@H](CO)[C@@H](O)[C@H](O)[C@H]2O[C@H]2C[C@](C)(N)[C@H](O)[C@H](C)O2)Oc2ccc(cc2Cl)[C@H]1O [Vancomycin]
- MIC [9]: 5 µM (≈ 7.25 µg/mL)
- MIC [10]: 0.63 µM (≈ 0.913 µg/mL)
- MIC [11]: 5 µM (≈ 7.25 µg/mL)
- log reduction in wound S. aureus [12]: 1 log
- MIC [13]: 0.63 µM (≈ 0.913 µg/mL)
- Ig(CFU/wound site) 12 h p.i. [14, 24]: 8.02 ± 0.35 Ig(CFU/wound site)
- ΔIg(CFU/wound site) vs 12 h infection control [14, 24]: −0.57 ± 0.35 Ig(CFU/wound site)
- Ig(CFU/wound site) 24 h p.i. [14, 25]: 7.29 ± 0.32 Ig(CFU/wound site)
- ΔIg(CFU/wound site) vs 24 h infection control [14, 25]: −1.44 ± 0.32 Ig(CFU/wound site)
- Ig(CFU/wound site) 12 h p.i. ([14]; Study I, 10 μL/wound site): 8.47 ± 0.22 Ig(CFU/wound site)
- Ig(CFU/wound site) 24 h p.i. ([14]; Study I, 10 μL/wound site): 7.67 ± 0.60 Ig(CFU/wound site)
- ΔIg(CFU/wound site) vs 12 h infection control ([14]; Study I, 10 μL/wound site): −0.11 ± 0.22 Ig(CFU/wound site)
- ΔIg(CFU/wound site) vs 24 h infection control ([14]; Study I, 10 μL/wound site): −1.12 ± 0.60 Ig(CFU/wound site)
- bacterial load decreased by, compared with 24 h infection control group ([14]; Study I, after twice administrations): 1.12 Ig CFU/wound site
- effect of a single dose at 12-hour post infection ([14]; Study I, single dose at 10 μg): not manifest
- Ig(CFU/wound site) 12 h p.i. [14, 26]: 7.83 ± 0.44 Ig(CFU/wound site)
- Ig(CFU/wound site) 24 h p.i. [14, 26]: 7.50 ± 0.54 Ig(CFU/wound site)
- ΔIg(CFU/wound site) vs 12 h infection control [14, 26]: −0.76 ± 0.44 Ig(CFU/wound site)
- ΔIg(CFU/wound site) vs 24 h infection control [14, 26]: −1.36 ± 0.54 Ig(CFU/wound site)
- Ig (CFU/wound site) ([14]; Study III, 24 h p.i., 1 mg/ml, 10 μL/wound site, 10 μg/wound site, inoculum 2.50E+06 CFU/wound site): 7.67 ± 0.24 Ig (CFU/wound site)
- ΔIg(CFU/wound site) vs infection control ([14]; Study III, 24 h p.i., 1 mg/ml, 10 μL/wound site): −1.11 ± 0.24 Ig(CFU/wound site)
- Ig (CFU/wound site) ([14]; Study III, 24 h p.i., 1 mg/ml, 50 μL/wound site, 50 μg/wound site): 4.37 ± 0.26 Ig (CFU/wound site)
- ΔIg(CFU/wound site) vs infection control ([14]; Study III, 24 h p.i., 1 mg/ml, 50 μL/wound site): −4.40 ± 0.26 Ig(CFU/wound site)
- Ig (CFU/wound site) [14, 27]: 5.29 ± 0.77 Ig (CFU/wound site)
- ΔIg(CFU/wound site) vs infection control [14, 27]: −3.28 ± 0.77 Ig(CFU/wound site)
- Ig (CFU/wound site) [14, 28]: 5.12 ± 0.65 Ig (CFU/wound site)
- ΔIg(CFU/wound site) vs infection control [14, 28]: −2.83 ± 0.65 Ig(CFU/wound site)
- Ig (CFU/wound site) [14, 29]: 6.07 ± 0.52 Ig(CFU/wound site)
- ΔIg(CFU/wound site) vs infection control [14, 29]: −2.39 ± 0.52 Ig(CFU/wound site)
- Ig (CFU/wound site) [14, 30]: 5.05 ± 0.20 Ig(CFU/wound site)
- ΔIg(CFU/wound site) vs infection control [14, 30]: −3.22 ± 0.20 Ig(CFU/wound site)
- MIC [15]: 0.04 µM (≈ 0.058 µg/mL)
- MIC [16]: 0.04 µM (≈ 0.058 µg/mL)
- MIC [17]: 0.04 µM (≈ 0.058 µg/mL)

SMILES: C[C@H]1COc2c(N3CCN(C)CC3)c(F)cc3c(=O)c(C(=O)O)cn1c23 [levofloxacin]
- MIC [18]: 4 µg/mL (≈ 11.1 µM)
- MIC [19]: 0.12 µg/mL (≈ 0.332 µM)
- MIC ([20]; ATCC700603, K. pneumoniae (ATCC 700603)): 0.5 µg/mL (≈ 1.38 µM)
- MIC ([20]; BAA1705, K. pneumoniae (ATCC BAA 1705)): > 8 µg/mL
- MIC [21]: 1 µg/mL (≈ 2.77 µM)
- MIC ([22]; ATCC25922, E. coli (ATCC 25922)): 0.015 µg/mL (≈ 0.0415 µM)
- MIC ([22]; ATCCBAA2452, E. coli (ATCC BAA-2452)): 0.03 µg/mL (≈ 0.083 µM)
- MIC ([23]; ATCC29212, E. faecalis (ATCC 29212)): 1 µg/mL (≈ 2.77 µM)
- MIC ([23]; ATCC51299, E. faecalis (ATCC 51299)): 0.5 µg/mL (≈ 1.38 µM)

From patent US12616716B2, “Wound healing dressings and formulations and methods of use thereof” (Polaroid IP B.V., priority 2023, dated 2026)
